Test results taken from US20250163104A1, “MACROCYCLIC IMMUNOMODULATORS” (priority 2021, published 2025).
Where a SMILES comes first, the peptide text is derived from it. Bridges are numbered along the chain shown (N, C = ends). [ ]: non-standard residue; d: D form. The star is where a group is joined. Phe(4-COOH) = N[C@@H](Cc1ccc(C(=O)O)cc1)C(=O)O; Bip = N[C@@H](Cc1ccc(-c2ccccc2)cc1)C(=O)O; Phe(3-OMe) = COc1cccc(C[C@H](N)C(=O)O)c1; Phe(3-Me) = Cc1cccc(C[C@H](N)C(=O)O)c1; Aha = [N-]=[N+]=NCC[C@H](N)C(=O)O; 3Pal = N[C@@H](Cc1cccnc1)C(=O)O; 4Pal = N[C@@H](Cc1ccncc1)C(=O)O; Cha = N[C@@H](CC1CCCCC1)C(=O)O; Cit = NC(=O)NCCC[C@H](N)C(=O)O; Carboxymethyl = O=C(O)C*; Orn = NCCC[C@H](N)C(=O)O; Pra = C#CC[C@H](N)C(=O)O; Dab = NCC[C@H](N)C(=O)O; Dap = NC[C@H](N)C(=O)O

molecular target: T1, human PD-1 / PD-L1-Ig binding on Jurkat cell line over-expressing human PD-1 (Jurkat-PD-1) (Homo sapiens, UniProt Q15116); experiment: Jurkat-PD-1 Cell Binding High-Content Screening Assay (CBA); type: cell-based; conditions: Jurkat-PD-1 cells, PE-labeled PD-L1-Ig 20 nM final; read-out: Jurkat HPD1_PDL1 IC50
T1 construct: expressed in transfected cells; host or cells: Jurkat
T1 sequence (Q15116 25-288): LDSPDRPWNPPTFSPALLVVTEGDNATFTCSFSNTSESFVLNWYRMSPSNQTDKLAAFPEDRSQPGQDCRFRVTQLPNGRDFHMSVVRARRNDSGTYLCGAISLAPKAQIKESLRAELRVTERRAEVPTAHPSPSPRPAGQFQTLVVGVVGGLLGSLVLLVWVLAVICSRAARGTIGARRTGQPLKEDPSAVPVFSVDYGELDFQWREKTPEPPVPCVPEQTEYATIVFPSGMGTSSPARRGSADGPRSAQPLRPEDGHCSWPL
Outline: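 Cell-bound PE-labeled PD-L1-Ig (20 nM final, 1 h) measured by high-content imaging after fixation and Hoechst 33342 counterstain. Compound was applied first for 2 h at 37° C. to Jurkat cells over-expressing human PD-1 in DMEM with 10% FCS.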

Row | IC50 [nM] | Compound
1 | 87.4 | C#CC[C@H](NC(=O)[C@@H]1CSCC(=O)N[C@@H](CN)C(=O)N[C@@H](CCN=[N+]=[N-])C(=O)N[C@@H](CC(=O)O)C(=O)N[C@@H](Cc2c[nH]c3ccccc23)C(=O)N[C@@H](C(C)C)C(=O)N[C@@H](Cc2ccc(-c3ccccc3)cc2)C(=O)N[C@@H](CCC(=O)O)C(=O)N[C@@H](CCCN)C(=O)N[C@H](CC(C)C)C(=O)N[C@@H](CCN)C(=O)N[C@@H](CC2CCCCC2)C(=O)N[C@@H](C(C)C)C(=O)N[C@@H]([C@@H](C)O)C(=O)N1)C(N)=O [Compound 1540] ({CH2CO}-[Dap][Aha]DWV[Bip]E[Orn][dL][Dab][Cha]VTC[Pra]-NH2; thioether N-14)
2 | 16.6 | COc1cccc(C[C@@H]2NC(=O)[C@H](CC(=O)O)NC(=O)[C@H](Cc3ccc(C(=O)O)cc3)NC(=O)[C@H](Cc3ccc(OCC(=O)O)cc3)NC(=O)CSC[C@@H](C(=O)N[C@@H](C)C(N)=O)NC(=O)[C@H]([C@@H](C)O)NC(=O)[C@H](C(C)C)NC(=O)[C@H](CC3CCCCC3)NC(=O)[C@H](CCN)NC(=O)[C@@H](CC(C)C)NC(=O)[C@H](CCCN)NC(=O)[C@H](CCC(=O)O)NC(=O)[C@H](Cc3ccc(-c4ccccc4)cc3)NC(=O)[C@H](C(C)C)NC2=O)c1 [Compound 1541]
3 | 18.6 | COc1cccc(C[C@@H]2NC(=O)[C@H](CC(=O)O)NC(=O)[C@H](Cc3ccc(OCC(=O)O)cc3)NC(=O)[C@H](Cc3ccccc3)NC(=O)CSC[C@@H](C(=O)N[C@@H](C)C(N)=O)NC(=O)[C@H]([C@@H](C)O)NC(=O)[C@H](C(C)C)NC(=O)[C@H](CC3CCCCC3)NC(=O)[C@H](CCN)NC(=O)[C@@H](CC(C)C)NC(=O)[C@H](CCCN)NC(=O)[C@H](CCC(=O)O)NC(=O)[C@H](Cc3ccc(-c4ccccc4)cc3)NC(=O)[C@H](C(C)C)NC2=O)c1 [Compound 1542] ({CH2CO}-FY(Carboxymethyl)D[Phe(3-OMe)]V[Bip]E[Orn][dL][Dab][Cha]VTCA-NH2; thioether N-14)
4 | 27.7 | COc1cccc(C[C@@H]2NC(=O)[C@H](CC(=O)O)NC(=O)[C@H](Cc3ccc(O)cc3)NC(=O)[C@H](Cc3ccncc3)NC(=O)CSC[C@@H](C(=O)N[C@@H](C)C(N)=O)NC(=O)[C@H]([C@@H](C)O)NC(=O)[C@H](C(C)C)NC(=O)[C@H](CC3CCCCC3)NC(=O)[C@H](CCN)NC(=O)[C@@H](CC(C)C)NC(=O)[C@H](CCCN)NC(=O)[C@H](CCC(=O)O)NC(=O)[C@H](Cc3ccc(-c4ccccc4)cc3)NC(=O)[C@H](C(C)C)NC2=O)c1 [Compound 1543]
5 | 10.5 | COc1cccc(C[C@@H]2NC(=O)[C@H](CC(=O)O)NC(=O)[C@H](Cc3ccc(OCC(=O)O)cc3)NC(=O)[C@H](Cc3ccncc3)NC(=O)CSC[C@@H](C(=O)N[C@@H](C)C(N)=O)NC(=O)[C@H]([C@@H](C)O)NC(=O)[C@H](C(C)C)NC(=O)[C@H](CC3CCCCC3)NC(=O)[C@H](CCN)NC(=O)[C@@H](CC(C)C)NC(=O)[C@H](CCCN)NC(=O)[C@H](CCC(=O)O)NC(=O)[C@H](Cc3ccc(-c4ccccc4)cc3)NC(=O)[C@H](C(C)C)NC2=O)c1 [Compound 1544]
6 | 17.8 | COc1cccc(C[C@@H]2NC(=O)[C@H](CC(=O)O)NC(=O)[C@H](Cc3ccc(OCC(=O)O)cc3)NC(=O)[C@H](Cc3cccnc3)NC(=O)CSC[C@@H](C(=O)N[C@@H](C)C(N)=O)NC(=O)[C@H]([C@@H](C)O)NC(=O)[C@H](C(C)C)NC(=O)[C@H](CC3CCCCC3)NC(=O)[C@H](CCN)NC(=O)[C@@H](CC(C)C)NC(=O)[C@H](CCCN)NC(=O)[C@H](CCC(=O)O)NC(=O)[C@H](Cc3ccc(-c4ccccc4)cc3)NC(=O)[C@H](C(C)C)NC2=O)c1 [Compound 1545]
7 | 9 | COc1cccc(C[C@@H]2NC(=O)[C@H](CC(=O)O)NC(=O)[C@H](Cc3ccncc3)NC(=O)[C@H](CN)NC(=O)CSC[C@@H](C(=O)N[C@@H](C)C(N)=O)NC(=O)[C@H]([C@@H](C)O)NC(=O)[C@H](C(C)C)NC(=O)[C@H](CC3CCCCC3)NC(=O)[C@H](CCN)NC(=O)[C@@H](CC(C)C)NC(=O)[C@H](CCCN)NC(=O)[C@H](CCC(=O)O)NC(=O)[C@H](Cc3ccc(-c4ccccc4)cc3)NC(=O)[C@H](C(C)C)NC2=O)c1 [Compound 1546] ({CH2CO}-[Dap][4Pal]D[Phe(3-OMe)]V[Bip]E[Orn][dL][Dab][Cha]VTCA-NH2; thioether N-14)
8 | 15.9 | CC[C@H](C)[C@@H]1NC(=O)[C@H](Cc2ccc(-c3ccccc3)cc2)NC(=O)[C@H](C(C)C)NC(=O)[C@H](Cc2cccc(C)c2)NC(=O)[C@H](CC(=O)O)NC(=O)[C@H](Cc2ccc(C(=O)O)cc2)NC(=O)[C@H](Cc2ccncc2)NC(=O)CSC[C@@H](C(N)=O)NC(=O)[C@H]([C@@H](C)O)NC(=O)[C@H](C(C)C)NC(=O)[C@H](CC2CCCCC2)NC(=O)[C@H](CCN)NC(=O)[C@@H](CC(C)C)NC(=O)[C@H](CCCN)NC1=O [Compound 1547] ({CH2CO}-[4Pal][Phe(4-COOH)]D[Phe(3-Me)]V[Bip]I[Orn][dL][Dab][Cha]VTC-NH2; thioether N-14)
9 | 18.4 | Cc1cccc(C[C@@H]2NC(=O)[C@H](CC(=O)O)NC(=O)[C@H](Cc3ccc(C(=O)O)cc3)NC(=O)[C@H](Cc3ccncc3)NC(=O)CSC[C@@H](C(N)=O)NC(=O)[C@H]([C@@H](C)O)NC(=O)[C@H](C(C)C)NC(=O)[C@H](CC3CCCCC3)NC(=O)[C@H](CCN)NC(=O)[C@@H](CC(C)C)NC(=O)[C@H](CCCN)NC(=O)[C@H](C(C)C)NC(=O)[C@H](Cc3ccc(-c4ccccc4)cc3)NC(=O)[C@H](C(C)C)NC2=O)c1 [Compound 1548] ({CH2CO}-[4Pal][Phe(4-COOH)]D[Phe(3-Me)]V[Bip]V[Orn][dL][Dab][Cha]VTC-NH2; thioether N-14)
10 | 10.9 | Cc1cccc(C[C@@H]2NC(=O)[C@H](CC(=O)O)NC(=O)[C@H](Cc3ccc(C(=O)O)cc3)NC(=O)[C@H](Cc3ccncc3)NC(=O)CSC[C@@H](C(N)=O)NC(=O)[C@H]([C@@H](C)O)NC(=O)[C@H](C(C)C)NC(=O)[C@H](CC3CCCCC3)NC(=O)[C@H](CCN)NC(=O)[C@@H](CC(C)C)NC(=O)[C@H](CCCN)NC(=O)[C@H](CCCNC(N)=O)NC(=O)[C@H](Cc3ccc(-c4ccccc4)cc3)NC(=O)[C@H](C(C)C)NC2=O)c1 [Compound 1549] ({CH2CO}-[4Pal][Phe(4-COOH)]D[Phe(3-Me)]V[Bip][Cit][Orn][dL][Dab][Cha]VTC-NH2; thioether N-14)
11 | 94.5 | Cc1cccc(C[C@@H]2NC(=O)[C@H](CC(=O)O)NC(=O)[C@H](Cc3ccncc3)NC(=O)[C@H](CN)NC(=O)CSC[C@@H](C(N)=O)NC(=O)[C@H]([C@@H](C)O)NC(=O)[C@H](C(C)C)NC(=O)[C@H](CC(C)C)NC(=O)[C@H](CCN)NC(=O)[C@@H](CC(C)C)NC(=O)[C@H](CCCN)NC(=O)[C@H](C(C)C)NC(=O)[C@H](Cc3ccc(-c4ccccc4)cc3)NC(=O)[C@H](C(C)C)NC2=O)c1 [Compound 1550] ({CH2CO}-[Dap][4Pal]D[Phe(3-Me)]V[Bip]V[Orn][dL][Dab]LVTC-NH2; thioether N-14)
12 | 15.6 | Cc1cccc(C[C@@H]2NC(=O)[C@H](CC(=O)O)NC(=O)[C@H](Cc3ccc(C(=O)O)cc3)NC(=O)[C@H](Cc3ccc(OCC(=O)O)cc3)NC(=O)CSC[C@@H](C(N)=O)NC(=O)[C@H]([C@@H](C)O)NC(=O)[C@H](C(C)C)NC(=O)[C@H](CC(C)C)NC(=O)[C@H](CCN)NC(=O)[C@@H](CC(C)C)NC(=O)[C@H](CCCN)NC(=O)[C@H](C(C)C)NC(=O)[C@H](Cc3ccc(-c4ccccc4)cc3)NC(=O)[C@H](C(C)C)NC2=O)c1 [Compound 1551] ({CH2CO}-Y(Carboxymethyl)[Phe(4-COOH)]D[Phe(3-Me)]V[Bip]V[Orn][dL][Dab]LVTC-NH2; thioether N-14)
13 | 21.8 | Cc1cccc(C[C@@H]2NC(=O)[C@H](CC(=O)O)NC(=O)[C@H](Cc3ccc(C(=O)O)cc3)NC(=O)[C@H](Cc3ccncc3)NC(=O)CSC[C@@H](C(N)=O)NC(=O)[C@H]([C@@H](C)O)NC(=O)[C@H](C(C)C)NC(=O)[C@H](CC3CCCCC3)NC(=O)[C@H](CCN)NC(=O)[C@@H](CC(C)C)NC(=O)[C@H](CCCN)NC(=O)[C@H](CCC(=O)O)NC(=O)[C@H](Cc3ccc(-c4ccccc4)cc3)NC(=O)[C@H](C(C)C)NC2=O)c1 [Compound 1552] ({CH2CO}-[4Pal][Phe(4-COOH)]D[Phe(3-Me)]V[Bip]E[Orn][dL][Dab][Cha]VTC-NH2; thioether N-14)
14 | 26.9 | Cc1cccc(C[C@@H]2NC(=O)[C@H](CC(=O)O)NC(=O)[C@H](Cc3ccc(OCC(=O)O)cc3)NC(=O)[C@H](Cc3cccnc3)NC(=O)CSC[C@@H](C(N)=O)NC(=O)[C@H]([C@@H](C)O)NC(=O)[C@H](C(C)C)NC(=O)[C@H](CC(C)C)NC(=O)[C@H](CCN)NC(=O)[C@@H](CC(C)C)NC(=O)[C@H](CCCN)NC(=O)[C@H](C(C)C)NC(=O)[C@H](Cc3ccc(-c4ccccc4)cc3)NC(=O)[C@H](C(C)C)NC2=O)c1 [Compound 1553] ({CH2CO}-[3Pal]Y(Carboxymethyl)D[Phe(3-Me)]V[Bip]V[Orn][dL][Dab]LVTC-NH2; thioether N-14)
15 | 96.2 | CC[C@H](C)[C@@H]1NC(=O)[C@H](Cc2ccc(-c3ccccc3)cc2)NC(=O)[C@H](C(C)C)NC(=O)[C@H](Cc2cccc(C)c2)NC(=O)[C@H](CC(=O)O)NC(=O)[C@H](Cc2ccncc2)NC(=O)[C@H](CN)NC(=O)CSC[C@@H](C(N)=O)NC(=O)[C@H]([C@@H](C)O)NC(=O)[C@H](C(C)C)NC(=O)[C@H](CC(C)C)NC(=O)[C@H](CCN)NC(=O)[C@@H](CC(C)C)NC(=O)[C@H](CCCN)NC1=O [Compound 1554] ({CH2CO}-[Dap][4Pal]D[Phe(3-Me)]V[Bip]I[Orn][dL][Dab]LVTC-NH2; thioether N-14)
